The record followed here is ChEMBL document CHEMBL1201862, “PubChem BioAssay data set” (2004).

Usually GI50 stands for the concentration that inhibits growth by half.

Experiment in all cases: DTP human tumour cell line panel, 48 h
In experiment [1] the test system is RXF 393.
The subject of experiment [2] is HL-60.
Experiment [3] concerns KM12.
Experiment [4] concerns SK-MEL-5.
The subject of experiment [5] is IGROV-1.
Experiment [6] concerns HCT-15.
The test system of experiment [7] is NCI-H460.
Experiment [8] deals with EKVX.
Experiment [9] has as its system OVCAR-4.
In experiment [10] the test system is A549.
Experiment [11] concerns SK-MEL-2.
Experiment [12] has as its system HOP-62.
Experiment [13] deals with Malme-3M.
The test system of experiment [14] is OVCAR-5.
In experiment [15] the test system is TK-10.
Experiment [16] has as its system 786-0.
The subject of experiment [17] is U-251.
Experiment [18] deals with HOP-92.

SMILES strings stand for the structures.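 Results reflect a 48-hour exposure of cells in 96-well plates to compound at five concentrations. GI50 = concentration required for 50% inhibition of growth.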 Active and inactive are the calls of the source. No stated cut-off is given here; in the data, active = GI50 up to about 1.1 µM and inactive = higher. Where only a bound is given, the exact number is not on record here.

For the molecule `CC1(C)OB(O)OC1(C)C`, the GI50 was > 100 µM (inactive) in experiment [1]; > 100 µM (inactive) in experiment [2]; > 100 µM (inactive) in experiment [3]; > 100 µM (inactive) in experiment [4]; > 100 µM (inactive) in experiment [5]; over 100 µM in experiment [6]. For the same molecule, the GI50 in [7], in experiment [8], in [9], in [10], in experiment [11] and in [12] was > 100 µM (inactive) throughout. Moreover, the GI50 in experiment [13], in [14], in experiment [15] and in experiment [16] was > 100 µM (inactive) each time.

For `O=C(O)/C(Cl)=C(\Cl)C(=O)NC1C2CC3CC(C2)CC1C3` (centres undefined), the GI50 in experiment [17] was > 100 µM (inactive); in experiment [2] it was > 100 µM (inactive); in experiment [18], > 100 µM (inactive); in [3] it was 9.64 µM (inactive); in experiment [4], > 100 µM (inactive); in experiment [5], > 100 µM (inactive). The 50% growth inhibitory concentration (GI50) was over 100 µM in [6]; > 100 µM (inactive) in [8]; > 100 µM (inactive) in [9]; > 100 µM (inactive) in experiment [10]; > 100 µM (inactive) in experiment [12]; > 100 µM (inactive) in [13]. The GI50 in experiment [14] and in [16] was > 100 µM (inactive) each time.

Take `CNC(=S)NC1CCCCC1NC(=S)NC` (centres undefined): the GI50 in experiment [17], in [2], in experiment [18], in experiment [3], in experiment [4] and in experiment [5] was > 100 µM (inactive) each time. The GI50 is over 100 µM in experiment [6]; > 100 µM (inactive) in experiment [7]; > 100 µM (inactive) in experiment [8]; > 100 µM (inactive) in experiment [9]; > 100 µM (inactive) in [10]; > 100 µM (inactive) in experiment [11]. Also, the GI50 in [12], in experiment [13], in [14] and in experiment [16] was > 100 µM (inactive) each time.

With `O=C(N/C(=C\c1cccc([N+](=O)[O-])c1)c1nc2ccccc2[nH]1)c1ccccc1`, the GI50 was 44 µM (inactive) in experiment [17]; 40.6 µM (inactive) in [18]; 69 µM (inactive) in experiment [3]; 41.1 µM (inactive) in experiment [4]; 91.4 µM (inactive) in experiment [5]; 26.1 µM in experiment [6]. Moreover, the GI50 is 87.1 µM (inactive) in experiment [7]; > 100 µM (inactive) in experiment [8]; > 100 µM (inactive) in experiment [9]; 35.2 µM (inactive) in [10]; 66.7 µM (inactive) in experiment [11]; 42.8 µM (inactive) in [12]. For the same molecule, the GI50 in experiment [13] is > 100 µM (inactive); in experiment [14], 63.4 µM (inactive); in experiment [16], 55.2 µM (inactive).

Consider `Cc1ccc(C2=C(c3ccc(C)cc3)C(c3ccc(C)cc3)=C(c3ccc(C)cc3)C2=O)cc1`, for which the GI50 in experiment [1] was > 100 µM (inactive); in experiment [17] it was > 100 µM (inactive); in experiment [3], > 100 µM (inactive); in [4], > 100 µM (inactive); in [5] it was > 100 µM (inactive); in [6] it was over 100 µM. For the same molecule, the GI50 in experiment [7], in experiment [8], in [10], in experiment [11], in experiment [12] and in [13] was > 100 µM (inactive) each time. Moreover, the GI50 in experiment [14], in [15] and in experiment [16] was > 100 µM (inactive) throughout.

For `CC12CC3C(CC1SCC(=O)O2)C3(C)C` (centres undefined), the GI50 in experiment [17], in [2], in experiment [18], in experiment [3], in experiment [4] and in experiment [5] was > 100 µM (inactive) each time. For the same molecule, the concentration for 50% growth inhibition (GI50) in [6] was over 100 µM; in experiment [7] it was > 100 µM (inactive); in experiment [8], > 100 µM (inactive); in experiment [9], > 100 µM (inactive); in experiment [10], > 100 µM (inactive); in experiment [11], > 100 µM (inactive). Moreover, the GI50 in experiment [13], in [14], in experiment [15] and in [16] was > 100 µM (inactive) in each case.

As for `CC(C)C(/C=C/c1ccc(Br)cc1)=N\NC(N)=O`, the GI50 in experiment [1], in experiment [17], in [2], in experiment [18], in experiment [3] and in experiment [4] was > 100 µM (inactive) throughout. Besides, the GI50 was > 100 µM (inactive) in [5]; over 100 µM in experiment [6]; > 100 µM (inactive) in experiment [7]; > 100 µM (inactive) in experiment [8]; > 100 µM (inactive) in experiment [9]; > 100 µM (inactive) in experiment [10]. In addition, the GI50 in experiment [11], in experiment [12], in experiment [14], in experiment [15] and in [16] was > 100 µM (inactive) in each case.

Take `CC(=O)OC12c3ccccc3C1CCCCCC21OCCCO1` (centres undefined): the GI50 in experiment [1], in experiment [17], in experiment [2], in experiment [3], in experiment [4] and in experiment [5] was > 100 µM (inactive) in each case. In addition, the GI50 in [6] was over 100 µM; in experiment [7], > 100 µM (inactive); in experiment [9], > 100 µM (inactive); in experiment [10] it was > 100 µM (inactive); in experiment [11] it was > 100 µM (inactive); in [12], > 100 µM (inactive). In addition, the GI50 in [14], in experiment [15] and in experiment [16] was > 100 µM (inactive) throughout.

For `CCc1ccc(/C(C)=N/NC(N)=S)cc1`, the GI50 was 47.3 µM (inactive) in [1]; > 100 µM (inactive) in experiment [17]; > 100 µM (inactive) in experiment [18]; > 100 µM (inactive) in [3]; 78.2 µM (inactive) in experiment [4]; > 100 µM (inactive) in [5]. Further, the GI50 is > 100 µM (inactive) in experiment [8]; 37.6 µM (inactive) in [9]; 81.1 µM (inactive) in [10]; > 100 µM (inactive) in experiment [11]; > 100 µM (inactive) in experiment [12]; 25.8 µM (inactive) in experiment [13]. Also, the GI50 in experiment [14] is 13.1 µM (inactive); in [15], > 100 µM (inactive); in [16] it was > 100 µM (inactive).

Turning to `CN(C)CC1CCC/C1=N\O` (centres undefined), the GI50 is > 100 µM (inactive) in [1]; > 100 µM (inactive) in experiment [17]; > 100 µM (inactive) in experiment [18]; > 100 µM (inactive) in [4]; > 100 µM (inactive) in experiment [5]; over 100 µM in [6]. In addition, the GI50 in [7], in experiment [9], in [11], in [12], in experiment [14] and in experiment [15] was > 100 µM (inactive) throughout. The GI50 in [16] was > 100 µM (inactive).

Turning to `CC(CC(=O)N1C(=O)C(C)(C)[C@@H](O)[C@H]1CC(C)C(Cl)(Cl)Cl)C(Cl)(Cl)Cl` (some centres undefined), the GI50 in experiment [17], in experiment [2], in experiment [18], in [3], in experiment [4] and in experiment [5] was > 100 µM (inactive) throughout. For the same molecule, the GI50 in experiment [6] is over 100 µM; in experiment [7], > 100 µM (inactive); in experiment [8] it was > 100 µM (inactive); in experiment [9], > 100 µM (inactive); in experiment [10], > 100 µM (inactive); in experiment [12] it was > 100 µM (inactive). Further, the GI50 in experiment [13], in [15] and in experiment [16] was > 100 µM (inactive) each time.

For `COC(=O)C1=C(c2cc(OC)c(OC)c(OC)c2)OC(c2ccc3c(c2)OCO3)C1` (centres undefined), the GI50 in [1] was 49 µM (inactive); in experiment [17], 19.6 µM (inactive); in experiment [18], 24.8 µM (inactive); in experiment [3], 13.2 µM (inactive); in experiment [4], 19.1 µM (inactive); in experiment [5], 2.12 µM (inactive). The GI50 was 19.1 µM in experiment [6]; 31.7 µM (inactive) in [7]; 27 µM (inactive) in experiment [8]; 40.5 µM (inactive) in [9]; 34.5 µM (inactive) in [10]; 35.7 µM (inactive) in experiment [12]. Further, the GI50 in experiment [13] is 72.1 µM (inactive); in experiment [14] it was 64.4 µM (inactive); in experiment [15], 80 µM (inactive); in [16] it was 35.2 µM (inactive).

For the molecule `O=C(CCc1n[nH]c(=S)o1)Nc1cc(Cl)ccc1Cl`, the GI50 is 34.4 µM (inactive) in experiment [17]; 30.5 µM (inactive) in [2]; > 100 µM (inactive) in experiment [18]; > 100 µM (inactive) in experiment [3]; > 100 µM (inactive) in [4]; > 100 µM (inactive) in [5]. In addition, the GI50 in [6] is 20.7 µM; in experiment [7], 51.3 µM (inactive); in experiment [8], > 100 µM (inactive); in experiment [9], > 100 µM (inactive); in [10], 50.6 µM (inactive); in experiment [12], > 100 µM (inactive). The GI50 in [13] is > 100 µM (inactive); in experiment [14], > 100 µM (inactive); in [15], > 100 µM (inactive); in [16], 29.6 µM (inactive).
